Experimental data taken from patent US20250012803A1, “METHODS FOR ASSESSING AN IMMUNE RESPONSE AND PREDICTING CANCER RECURRENCE AND ASSESSMENT OF CURRENT AND PRIOR CANCER STATUS” (priority 2021, published 2025).
“And” between values parts separate entries of the source, which are not always exact repeats. Equal values may be shown once.

Columns and labels:
Type in all cases: in vivo, human
[1] = test system: node-positive and high-risk node-negative breast cancer patients with tumors expressing any degree of HER2; assay: Phase IIb trial (NCT00524277): disease-free survival / breast cancer recurrence
Experimental: Background for Examples 1-5: Delayed type hypersensitivity (DTH) skin tests in the randomized, active-controlled, single-blinded, multicenter Phase IIb trial investigating GLSI-100 (GP2+GM-CSF) administered in the adjuvant setting to node-positive and high-risk node-negative breast cancer patients with tumors expressing any degree of HER2 (immuno-histochemistry [IHC] 1-3+) (NCT00524277) were analyzed. The trial enrolled HLA-A*02 patients randomized to receive GLSI-100 versus GM-CSF alone. The trial's primary objective was to determine if treatment with GLSI-100, a HER2-derived peptide, reduces recurrence rates.
(§1) Methods: Consented patients were randomized and scheduled to receive GLSI-100 (500 microgram (mcg) GP2: 125 mcg GM-CSF) or control (GM-CSF only) via 6 intradermal injections every 3-4 weeks as part of the Primary Immunization Series (PIS) for the first 6 months and 4 booster intradermal injections every 6 months thereafter. […] DTH skin tests were assessed at baseline and after the 6th dose with the orthogonal mean of each skin reaction measured 48-72 hours after injection using the sensitive ballpoint-pen method.
Results: The study enrolled 180 patients across 16 clinical sites with both HER2 3+ positive and low HER2 expressors (1-2+). […] Injection site reactions were common, occurring in almost 100% of patients treated with either GLSI-100 or GM-CSF alone. […]

breast cancer patients = assay: Phase IIb trial safety / tolerability; conditions: patients treated with either GLSI-100 or GM-CSF alone
Experimental: as §1
Results: The study enrolled 180 patients across 16 clinical sites with both HER2 3+ positive and low HER2 expressors (1-2+). […] Injection site reactions were common, occurring in almost 100% of patients treated with either GLSI-100 or GM-CSF alone. Previous publications have reported the increase in DTH response reported among patients after treatment with GLSI-100.

[2] = test system: breast cancer patients (DTH immune response to GP2); assay: Delayed type hypersensitivity (DTH) skin test to GP2
Experimental: as §1
A DTH reaction was used to assess in vivo immune responses in patients (n=150) prior to exposure to study medication and after 6 months of the first dose. The DTH orthogonal mean was measured 48-72 hours after injection using the sensitive ballpoint-pen method. DTH reactions after the PIS were greater compared to baseline DTH reactions.
A DTH reaction was used to assess in vivo immune responses in patients (n=150) prior to exposure to study medication and after 6 months of the first dose. The DTH orthogonal mean was measured 48-72 hours after injection using the sensitive ballpoint-pen method. GP2 DTH response increases in patients after treatment with GLSI-100.
Injection site reactions (ISR) were measured 48-72 hours after injection. Delayed-type hypersensitivity (DTH) to GP2 was performed at baseline and after 6 months of treatment. For the DTH test, 0.5 mL consisting of 100 mcg of GP2 reconstituted in bacteriostatic saline for injection was placed intradermally. The DTH reaction was measured 48-72 hours after injection.
The orthogonal mean of the largest diameter of the injection site was measured 48-72 hours after injection. A DTH reaction was used to assess in vivo immune responses in patients prior to exposure to study medication and after 6 months of the first dose. The DTH orthogonal mean was measured 48-72 hours after DTH placement using the sensitive ballpoint-pen method. DTH reactions increase after the PIS compared to baseline DTH reactions.
GP2 DTH skin tests were placed at baseline and after the 6th dose. After 48-72 hours, the largest perpendicular diameters of induration were measured and the orthogonal mean was calculated. Induration of over 5 mm was considered a positive response. The relationship between prognostic factors such as demographic and disease characteristics and the baseline DTH response were investigated by logistic regression.

[3] = test system: breast cancer patients (injection site); assay: Injection site reaction (ISR) measurement, orthogonal mean

Substance | Kaplan-Meier estimated 5-year disease-free survival (DFS) rate ([1]; HER2 3+ patients followed 6 months or more and disease-free over first 6 months, 5 years follow-up, p=0.0338) | patients with injection site reactions (breast cancer patients) | DTH reaction after the Primary Immunization Series (orthogonal mean) ([2]; after 6 months, measured 48-72 hours after injection, p=0.009) | median orthogonal mean induration of injection site reaction ([3]; after a single dose, p=0.0036) | average difference in injection site reaction, HER2 3+ vs HER2 1-2+ control patients ([3]; over all 10 doses, HER2 3+ smaller) | Time to Recurrence ([1]; individual patients who experienced breast cancer recurrence) | patients reacting to GP2 at baseline (positive DTH, induration of 5 mm or greater) ([2]; baseline, prior to any GP2 treatment, all patients (33/145)) | patients with positive baseline DTH response to GP2 in subgroup with later breast cancer recurrence ([2]; baseline, recurrence subgroup (8/22)) | 6 Month DTH (mm) ([2]; individual recurring patients, after 6 months of treatment) | Baseline DTH (mm) ([2]; individual recurring patients, prior to exposure to study medication)
granulocyte-macrophage colony-stimulating factor [GM-CSF] | 89.4% | ~100% | 0.0 mm | 7.8 mm | 43.1 mm | – | – | – | – | –
Ile Ile Ser Ala Val Val Gly Ile Leu (IISAVVGIL) [GP2] | – | – | – | – | – | 28 days and 99 days and 66 days and 820 days and 265 days and 498 days and 507 days and 366 days and 590 days and 141 days and 79 days and 76 days and 1295 days | 22.8% | 36.4% | 24 mm and 20 mm and 16 mm and 15 mm and 3 mm and 0 mm and 25 mm | 9 mm and 8 mm and 7 mm and 0 mm (8×) and 43 mm and 13 mm
